Source: ChEMBL document CHEMBL1130691, “Acceptor substrate-based selective inhibition of galactosyltransferases” (Bioorg Med Chem Lett, 1998)

Key:
[1] = molecular target: T1, N-acetyllactosaminide alpha-1,3-galactosyltransferase (Sus scrofa, UniProt P50127); test: Compound was tested for the inhibition porcine alpha -1,3 -galactosyl transferase (alpha-1,3-GalT) at 0.2 mM concentration
[2] = molecular target: T2, Beta-1,4-galactosyltransferase 1 (Bos taurus, UniProt P08037); test: Compound was tested for the inhibition recombinant bovine beta -1,4 -galactosyl transferase (beta-1,4-GalT)
T2 sequence (P08037 whole entry): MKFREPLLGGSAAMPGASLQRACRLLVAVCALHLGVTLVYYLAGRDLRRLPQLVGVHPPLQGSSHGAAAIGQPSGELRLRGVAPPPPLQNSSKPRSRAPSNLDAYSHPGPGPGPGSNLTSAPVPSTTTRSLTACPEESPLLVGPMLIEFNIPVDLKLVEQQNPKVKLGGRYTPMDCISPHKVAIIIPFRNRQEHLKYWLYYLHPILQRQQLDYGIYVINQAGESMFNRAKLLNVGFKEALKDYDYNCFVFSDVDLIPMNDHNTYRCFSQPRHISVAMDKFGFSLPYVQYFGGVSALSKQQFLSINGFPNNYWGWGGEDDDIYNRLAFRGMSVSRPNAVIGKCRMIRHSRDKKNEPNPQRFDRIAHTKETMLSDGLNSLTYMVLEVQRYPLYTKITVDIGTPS

[3] = molecular target: T1, N-acetyllactosaminide alpha-1,3-galactosyltransferase; test: Compound was tested for the inhibition porcine alpha -1,3 -galactosyl transferase (alpha-1,3-GalT); No inhibition
[4] = molecular target: T2, Beta-1,4-galactosyltransferase 1; test: Compound was tested for the inhibition recombinant bovine beta -1,4 -galactosyl transferase (beta-1,4-GalT); No inhibition
[5] = molecular target: T1, N-acetyllactosaminide alpha-1,3-galactosyltransferase; test: Compound was tested for the inhibition porcine alpha -1,3 -galactosyl transferase (alpha-1,3-GalT)

T1 sequence (P50127 whole entry): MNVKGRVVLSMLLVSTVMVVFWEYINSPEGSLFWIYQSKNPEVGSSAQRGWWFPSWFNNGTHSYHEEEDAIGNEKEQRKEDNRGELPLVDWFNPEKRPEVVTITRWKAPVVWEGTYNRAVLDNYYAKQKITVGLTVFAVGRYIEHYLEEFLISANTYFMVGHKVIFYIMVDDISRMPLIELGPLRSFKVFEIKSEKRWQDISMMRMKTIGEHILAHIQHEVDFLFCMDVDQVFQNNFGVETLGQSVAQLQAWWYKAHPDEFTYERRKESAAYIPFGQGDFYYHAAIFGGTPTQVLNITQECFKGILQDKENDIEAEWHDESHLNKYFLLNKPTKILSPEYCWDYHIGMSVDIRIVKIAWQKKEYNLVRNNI

| SMILES | Ki [2] [µM] | Ki [3] | Ki [4] | other results |
| --- | --- | --- | --- | --- |
| COC1OC(CO)C(OC2OC(CO)C(O)C(N)C2O)C(O)C1NC(C)=O (stereo unspecified) | – | – | – | Ki [1]: 104 µM |
| CO[C@@H]1O[C@@H](CO)[C@H](O)[C@H](O[C@@H]2O[C@@H](CS)[C@@H](O)[C@H](O)[C@@H]2NC(C)=O)[C@@H]1O | 1000 | – | – | – |
| CC(=O)N[C@@H]1[C@H](Oc2ccc3cc(Br)ccc3c2)O[C@@H](CO)[C@@H](O[C@@H]2O[C@@H](CO)[C@H](O)[C@H](O)[C@@H]2O)[C@@H]1O | – | – | Not Active | Ki [5]: 9.2 µM |
| OC[C@@H]1O[C@@H](Oc2ccc3cc(Br)ccc3c2)[C@@H](O)[C@@H](O)[C@H]1O | – | – | Not Active | – |
| COC(=O)CCCCCOC1OC(CO)C(O)C(O)C1NC(C)=O (stereo unspecified) | – | – | Not Active | – |

More lines, main results first:

| Ki [2] [µM] | Ki [3] | Ki [4] | SMILES | other results |
| --- | --- | --- | --- | --- |
| 3.5 | Not Active | – | COc1ccc2cc(OC3OC(CO)C(O)C(O)C3NC(C)=O)ccc2c1 (stereo unspecified) | – |
| – | – | Not Active | CC(=O)NC1C(Oc2ccccc2)OC(CO)C(O)C1O (stereo unspecified) | – |
| 7.6 | Not Active | – | CC(=O)NC1C(Oc2ccc3cc(Br)ccc3c2)OC(CO)C(O)C1O (stereo unspecified) | – |
| 9.5 | Not Active | – | CC(=O)NC1C(Oc2ccc3ccccc3c2)OC(CO)C(O)C1O (stereo unspecified) | – |
| 850 | – | – | CC(=O)NC1C(OCc2ccccc2)OC(CO)C(N)C1O (stereo unspecified) | – |
| 22 | Not Active | – | CC(=O)NC1C(Oc2cccc3ccccc23)OC(CO)C(O)C1O (stereo unspecified) | – |
